These results are taken from ChEMBL document CHEMBL5252552, “Defined concatenated α6α1β3γ2 GABAA receptor constructs reveal dual action of pyrazoloquinolinone allosteric modulators” (Bioorg Med Chem, 2019).

The structures appear in SMILES notation.

Assay [1] addresses Gamma-aminobutyric acid receptor subunit alpha-1/beta-3/gamma-2 (Rattus norvegicus, UniProt P18508+P62813+P63079). In words: Positive allosteric modulation of rat recombinant GABAA alpha1beta3alpha1-gamma2beta3 receptor expressed in Xenopus laevis oocytes assessed as increase in GABA-induced current amplitude at -80 mV holding potential under less potent phase in presence of GABA EC1 to 1.5 by two-electrode voltage-clamp assay. Format: cell-based, Oocyte. A general note: Two-electrode voltage clamp is typically applied to oocytes expressing channels or transporters.

Assay [2] has as its target T1, Gamma-aminobutyric acid receptor subunit alpha-1/beta-3/gamma-2 (Rattus norvegicus) (UniProt P18508+P62813+P63079). In words: Positive allosteric modulation of rat recombinant GABAA alpha1beta3gamma2 receptor expressed in Xenopus laevis oocytes assessed as maximal efficacy at -80 mV holding potential at 300 nM in presence of GABA EC1 to 1.5 by two-electrode voltage-clamp assay. The class given is cell-based. The following applies: Oocyte.

Assay [3] has as its target T1, Gamma-aminobutyric acid receptor subunit alpha-1/beta-3/gamma-2 (Rattus norvegicus). Put plainly: Positive allosteric modulation of rat recombinant GABAA alpha1beta3alpha1-gamma2beta3 receptor expressed in Xenopus laevis oocytes assessed as maximal efficacy at -80 mV holding potential at 10 uM in presence of GABA EC1 to 1.5 by two-electrode voltage-clamp assay. The class given is cell-based. Conditions: Oocyte, filed as positive allosteric modulator.

For assay [4] the target is unchanged. Put plainly: Positive allosteric modulation of rat recombinant GABAA alpha1beta3gamma2 receptor expressed in Xenopus laevis oocytes assessed as maximal current at -80 mV holding potential under less potent phase in presence of GABA EC1 to 1.5 by two-electrode voltage-clamp assay relative to control. Format: cell-based. Conditions: Oocyte, filed as positive allosteric modulator.

In assay [5] the target is T2, Gamma-aminobutyric acid receptor subunit alpha-1/alpha-6/beta-3/gamma-2 (Rattus norvegicus) (UniProt P18508+P30191+P62813+P63079). Put plainly: Positive allosteric modulation of rat recombinant GABAA gamma2beta3alpha1-beta3alpha6 receptor expressed in Xenopus laevis oocytes assessed as maximal efficacy at -80 mV holding potential at 10 nM in presence of GABA EC1 to 1.5 by two-electrode voltage-clamp assay. Format: cell-based. The following applies: Oocyte.

Assay [6] deals with T3, Gamma-aminobutyric acid receptor subunit alpha-6/beta-3/gamma-2 (Rattus norvegicus) (UniProt P18508+P30191+P63079). In words: Positive allosteric modulation of rat recombinant GABAA alpha6beta3alpha6-gamma2beta3 receptor expressed in Xenopus laevis oocytes assessed as maximal efficacy at -80 mV holding potential at 10 nM in presence of GABA EC1 to 1.5 by two-electrode voltage-clamp assay. Format: cell-based. Conditions: Oocyte.

Assay [7] has as its target T3, Gamma-aminobutyric acid receptor subunit alpha-6/beta-3/gamma-2 (Rattus norvegicus). In words: Positive allosteric modulation of rat recombinant GABAA alpha6beta3gamma2 receptor expressed in Xenopus laevis oocytes assessed as maximal efficacy at -80 mV holding potential at 3 uM in presence of GABA EC1 to 1.5 by two-electrode voltage-clamp assay. The following applies: Oocyte, filed as positive allosteric modulator. The class given is cell-based.

Assay [8] has as its target T2, Gamma-aminobutyric acid receptor subunit alpha-1/alpha-6/beta-3/gamma-2 (Rattus norvegicus). Put plainly: Positive allosteric modulation of rat recombinant GABAA gamma2beta3alpha1-beta3alpha6 receptor expressed in Xenopus laevis oocytes assessed as maximal efficacy at -80 mV holding potential at 300 nM in presence of GABA EC1 to 1.5 by two-electrode voltage-clamp assay. The class given is cell-based. The following applies: Oocyte, filed as positive allosteric modulator.

The target is the same in assay [9]. In words: Positive allosteric modulation of rat recombinant GABAA alpha6beta3alpha1-gamma2beta3 receptor expressed in Xenopus laevis oocytes assessed as maximal efficacy at -80 mV holding potential at 10 uM in presence of GABA EC1 to 1.5 by two-electrode voltage-clamp assay. Format: cell-based. Conditions: Oocyte, filed as positive allosteric modulator.
Assay [10] has the same target. In words: Positive allosteric modulation of rat recombinant GABAA alpha6beta3alpha1-gamma2beta3 receptor expressed in Xenopus laevis oocytes assessed as maximal efficacy at -80 mV holding potential at 1 uM in presence of GABA EC1 to 1.5 by two-electrode voltage-clamp assay. The class given is cell-based. The following applies: Oocyte, filed as positive allosteric modulator.

Assay [11] shares this target. Put plainly: Positive allosteric modulation of rat recombinant GABAA alpha6beta3alpha1-gamma2beta3 receptor expressed in Xenopus laevis oocytes assessed as maximal efficacy at -80 mV holding potential at 30 nM in presence of GABA EC1 to 1.5 by two-electrode voltage-clamp assay. Format: cell-based. The following applies: Oocyte.
Assay [12] deals with T1, Gamma-aminobutyric acid receptor subunit alpha-1/beta-3/gamma-2 (Rattus norvegicus). Put plainly: Positive allosteric modulation of rat recombinant GABAA alpha1beta3gamma2 receptor expressed in Xenopus laevis oocytes assessed as maximal efficacy at -80 mV holding potential at 30 uM in presence of GABA EC1 to 1.5 by two-electrode voltage-clamp assay. The following applies: Oocyte, filed as positive allosteric modulator. The class given is cell-based.

In assay [13] the target is Gamma-aminobutyric acid receptor subunit alpha-1/alpha-6/beta-3/gamma-2 (Rattus norvegicus, UniProt P18508+P30191+P62813+P63079). In words: Positive allosteric modulation of rat recombinant GABAA gamma2beta3alpha1-beta3alpha6 receptor expressed in Xenopus laevis oocytes assessed as increase in GABA-induced current amplitude at -80 mV holding potential under more potent phase in presence of GABA EC1 to 1.5 by two-electrode voltage-clamp assay. The class given is cell-based, Oocyte.

In assay [14] the target is T1, Gamma-aminobutyric acid receptor subunit alpha-1/beta-3/gamma-2 (Rattus norvegicus). In words: Positive allosteric modulation of rat recombinant GABAA alpha1beta3alpha1-gamma2beta3 receptor expressed in Xenopus laevis oocytes assessed as maximal efficacy at -80 mV holding potential at 1 uM in presence of GABA EC1 to 1.5 by two-electrode voltage-clamp assay. The class given is cell-based. Conditions: Oocyte.

The target in assay [15] is T2, Gamma-aminobutyric acid receptor subunit alpha-1/alpha-6/beta-3/gamma-2 (Rattus norvegicus). Put plainly: Positive allosteric modulation of rat recombinant GABAA gamma2beta3alpha1-beta3alpha6 receptor expressed in Xenopus laevis oocytes assessed as maximal efficacy at -80 mV holding potential at 100 nM in presence of GABA EC1 to 1.5 by two-electrode voltage-clamp assay. Format: cell-based. The following applies: Oocyte, filed as positive allosteric modulator.

Assay [16] has as its target T1, Gamma-aminobutyric acid receptor subunit alpha-1/beta-3/gamma-2 (Rattus norvegicus). Put plainly: Positive allosteric modulation of rat recombinant GABAA alpha1beta3gamma2 receptor expressed in Xenopus laevis oocytes assessed as maximal efficacy at -80 mV holding potential at 10 nM in presence of GABA EC1 to 1.5 by two-electrode voltage-clamp assay. The class given is cell-based. The following applies: Oocyte.

Assay [17] addresses T3, Gamma-aminobutyric acid receptor subunit alpha-6/beta-3/gamma-2 (Rattus norvegicus). In words: Positive allosteric modulation of rat recombinant GABAA alpha6beta3alpha6-gamma2beta3 receptor expressed in Xenopus laevis oocytes assessed as maximal efficacy at -80 mV holding potential at 1 uM in presence of GABA EC1 to 1.5 by two-electrode voltage-clamp assay. The class given is cell-based. The following applies: Oocyte, filed as positive allosteric modulator.

The target is the same in assay [18]. In words: Positive allosteric modulation of rat recombinant GABAA alpha6beta3gamma2 receptor expressed in Xenopus laevis oocytes assessed as maximal efficacy at -80 mV holding potential at 300 nM in presence of GABA EC1 to 1.5 by two-electrode voltage-clamp assay. The following applies: Oocyte, filed as positive allosteric modulator. The class given is cell-based.

The target is the same in assay [19]. Put plainly: Positive allosteric modulation of rat recombinant GABAA alpha6beta3gamma2 receptor expressed in Xenopus laevis oocytes assessed as maximal efficacy at -80 mV holding potential at 10 nM in presence of GABA EC1 to 1.5 by two-electrode voltage-clamp assay. Conditions: Oocyte. The class given is cell-based.
Assay [20] deals with T2, Gamma-aminobutyric acid receptor subunit alpha-1/alpha-6/beta-3/gamma-2 (Rattus norvegicus). In words: Positive allosteric modulation of rat recombinant GABAA gamma2beta3alpha1-beta3alpha6 receptor expressed in Xenopus laevis oocytes assessed as maximal efficacy at -80 mV holding potential at 10 uM in presence of GABA EC1 to 1.5 by two-electrode voltage-clamp assay. Format: cell-based. Conditions: Oocyte, filed as positive allosteric modulator.

Assay [21] addresses T1, Gamma-aminobutyric acid receptor subunit alpha-1/beta-3/gamma-2 (Rattus norvegicus). In words: Positive allosteric modulation of rat recombinant GABAA alpha1beta3alpha1-gamma2beta3 receptor expressed in Xenopus laevis oocytes assessed as maximal efficacy at -80 mV holding potential at 30 nM in presence of GABA EC1 to 1.5 by two-electrode voltage-clamp assay. Format: cell-based. Conditions: Oocyte.

Assay [22] has as its target Gamma-aminobutyric acid receptor subunit alpha-6/beta-3/gamma-2 (Rattus norvegicus, UniProt P18508+P30191+P63079). Put plainly: Positive allosteric modulation of rat recombinant GABAA alpha6beta3alpha6-gamma2beta3 receptor expressed in Xenopus laevis oocytes assessed as increase in GABA-induced current amplitude at -80 mV holding potential under more potent phase in presence of GABA EC1 to 1.5 by two-electrode voltage-clamp assay. The class given is cell-based, Oocyte.

Chain of Gamma-aminobutyric acid receptor subunit alpha-6/beta-3/gamma-2 (P18508 whole entry): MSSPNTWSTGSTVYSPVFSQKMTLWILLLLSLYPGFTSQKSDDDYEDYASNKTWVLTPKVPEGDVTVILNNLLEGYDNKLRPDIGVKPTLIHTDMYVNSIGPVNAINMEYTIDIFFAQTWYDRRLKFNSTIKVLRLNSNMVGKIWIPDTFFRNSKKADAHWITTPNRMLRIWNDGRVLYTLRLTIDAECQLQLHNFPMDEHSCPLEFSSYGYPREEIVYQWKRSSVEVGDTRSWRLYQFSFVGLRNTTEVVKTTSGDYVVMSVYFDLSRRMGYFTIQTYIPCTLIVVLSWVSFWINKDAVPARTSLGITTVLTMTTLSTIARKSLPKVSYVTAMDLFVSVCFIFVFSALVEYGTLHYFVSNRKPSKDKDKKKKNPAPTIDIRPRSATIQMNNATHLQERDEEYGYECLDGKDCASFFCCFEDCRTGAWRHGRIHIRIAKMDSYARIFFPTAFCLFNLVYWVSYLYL
Chain of Gamma-aminobutyric acid receptor subunit alpha-6/beta-3/gamma-2 (P30191 whole entry): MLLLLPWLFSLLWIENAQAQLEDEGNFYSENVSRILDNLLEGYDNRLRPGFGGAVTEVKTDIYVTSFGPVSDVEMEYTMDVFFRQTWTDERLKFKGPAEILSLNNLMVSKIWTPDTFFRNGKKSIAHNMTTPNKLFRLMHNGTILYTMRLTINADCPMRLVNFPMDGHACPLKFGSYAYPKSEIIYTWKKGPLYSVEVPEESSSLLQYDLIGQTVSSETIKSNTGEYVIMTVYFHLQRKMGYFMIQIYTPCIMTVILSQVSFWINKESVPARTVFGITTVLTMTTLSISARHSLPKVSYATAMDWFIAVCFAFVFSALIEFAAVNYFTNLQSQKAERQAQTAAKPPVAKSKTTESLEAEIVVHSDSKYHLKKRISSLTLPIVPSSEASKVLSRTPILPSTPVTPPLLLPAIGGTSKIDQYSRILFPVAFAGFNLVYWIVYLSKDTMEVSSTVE
Chain of Gamma-aminobutyric acid receptor subunit alpha-6/beta-3/gamma-2 (P63079 whole entry): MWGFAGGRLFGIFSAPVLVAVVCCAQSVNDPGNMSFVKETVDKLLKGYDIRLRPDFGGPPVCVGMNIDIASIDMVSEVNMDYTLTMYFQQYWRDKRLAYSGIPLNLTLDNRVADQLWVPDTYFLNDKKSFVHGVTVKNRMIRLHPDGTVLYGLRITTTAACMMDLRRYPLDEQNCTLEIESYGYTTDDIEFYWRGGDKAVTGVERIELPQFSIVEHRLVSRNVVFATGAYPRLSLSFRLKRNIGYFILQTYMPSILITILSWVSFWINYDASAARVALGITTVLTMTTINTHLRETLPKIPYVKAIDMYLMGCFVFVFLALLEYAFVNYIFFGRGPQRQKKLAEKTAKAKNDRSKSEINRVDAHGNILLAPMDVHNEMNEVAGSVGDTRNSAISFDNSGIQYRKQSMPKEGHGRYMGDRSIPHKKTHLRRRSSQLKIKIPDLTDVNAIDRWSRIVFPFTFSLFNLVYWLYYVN
Chain of Gamma-aminobutyric acid receptor subunit alpha-1/beta-3/gamma-2 (P18508 whole entry): as the sequence (P18508 whole entry) above
Chain of Gamma-aminobutyric acid receptor subunit alpha-1/beta-3/gamma-2 (P62813 whole entry): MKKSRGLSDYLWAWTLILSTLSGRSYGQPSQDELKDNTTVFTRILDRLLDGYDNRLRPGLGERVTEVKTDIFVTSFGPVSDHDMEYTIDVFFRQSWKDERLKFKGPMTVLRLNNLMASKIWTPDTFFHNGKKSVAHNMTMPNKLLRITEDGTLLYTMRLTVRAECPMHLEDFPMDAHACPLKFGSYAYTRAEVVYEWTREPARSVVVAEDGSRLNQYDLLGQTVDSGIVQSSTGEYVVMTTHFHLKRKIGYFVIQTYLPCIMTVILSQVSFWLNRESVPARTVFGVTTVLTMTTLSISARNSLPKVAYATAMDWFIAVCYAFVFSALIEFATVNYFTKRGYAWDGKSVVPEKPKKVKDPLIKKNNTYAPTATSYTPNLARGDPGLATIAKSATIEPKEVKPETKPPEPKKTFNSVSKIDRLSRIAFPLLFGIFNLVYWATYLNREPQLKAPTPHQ
Chain of Gamma-aminobutyric acid receptor subunit alpha-1/beta-3/gamma-2 (P63079 whole entry): as the sequence (P63079 whole entry) above
Chain of Gamma-aminobutyric acid receptor subunit alpha-1/alpha-6/beta-3/gamma-2 (P18508 whole entry): as the sequence (P18508 whole entry) above
Chain of Gamma-aminobutyric acid receptor subunit alpha-1/alpha-6/beta-3/gamma-2 (P30191 whole entry): as the sequence (P30191 whole entry) above
Chain of Gamma-aminobutyric acid receptor subunit alpha-1/alpha-6/beta-3/gamma-2 (P62813 whole entry): as the sequence (P62813 whole entry) above
Chain of Gamma-aminobutyric acid receptor subunit alpha-1/alpha-6/beta-3/gamma-2 (P63079 whole entry): as the sequence (P63079 whole entry) above

On to `COc1ccc(-n2nc3c4ccc(Br)cc4[nH]cc-3c2=O)cc1`, for which the EC50 (as a rule, the concentration that produces a half-maximal response) in assay [1] worked out at 10000 nM; in assay [13], 4 nM; in assay [22], 9 nM. Besides, the Efficacy in assay [2] is 11%; in [3] it was 157%; in assay [5], 23%; in assay [6], 33%; in assay [7], 377%; in [8], 48%. Further, the Efficacy in assay [9] came out at 662%; in assay [10] it was 144%; in assay [11], 8%; in [12], 109%; in assay [14], 34%; in [15] it was 45%. Moreover, the Efficacy in assay [16] was 1%; in assay [17], 196%; in [18] it was 121%; in assay [19], 24%; in assay [20], 186%; in assay [21] it was 5%. Besides, the %max in assay [4] worked out at 132%.
